The values below come from ChEMBL document CHEMBL1146356, “Lactotriaose-containing carbosilane dendrimers: syntheses and lectin-binding activities” (Bioorg Med Chem, 2007).

Assay [1] relates to Triticum aestivum. In words: Binding affinity to wheat germ agglutinin relative to Monovalent.
Assay [2] deals with Triticum aestivum. In words: Binding affinity to wheat germ agglutinin.

On to `CC(=O)N[C@H]1[C@H](O[C@H]2[C@@H](O)[C@@H](CO)O[C@@H](O[C@@H]3[C@@H](O)[C@H](O)C(OCCCCCSCCC[Si](CCCSCCCCCOC4O[C@@H](CO)[C@H](O[C@@H]5O[C@H](CO)[C@H](O)[C@H](O[C@@H]6O[C@H](CO)[C@@H](O)[C@H](O)[C@H]6NC(C)=O)[C@H]5O)[C@@H](O)[C@@H]4O)(CCCSCCCCCOC4O[C@@H](CO)[C@H](O[C@@H]5O[C@H](CO)[C@H](O)[C@H](O[C@@H]6O[C@H](CO)[C@@H](O)[C@H](O)[C@H]6NC(C)=O)[C@H]5O)[C@@H](O)[C@@H]4O)CCC[Si](C)(C)CCC[Si](CCCSCCCCCOC4O[C@@H](CO)[C@H](O[C@@H]5O[C@H](CO)[C@H](O)[C@H](O[C@@H]6O[C@H](CO)[C@@H](O)[C@H](O)[C@H]6NC(C)=O)[C@H]5O)[C@@H](O)[C@@H]4O)(CCCSCCCCCOC4O[C@@H](CO)[C@H](O[C@@H]5O[C@H](CO)[C@H](O)[C@H](O[C@@H]6O[C@H](CO)[C@@H](O)[C@H](O)[C@H]6NC(C)=O)[C@H]5O)[C@@H](O)[C@@H]4O)CCCSCCCCCOC4O[C@@H](CO)[C@H](O[C@@H]5O[C@H](CO)[C@H](O)[C@H](O[C@@H]6O[C@H](CO)[C@@H](O)[C@H](O)[C@H]6NC(C)=O)[C@H]5O)[C@@H](O)[C@@H]4O)O[C@H]3CO)[C@@H]2O)O[C@H](CO)[C@@H](O)[C@@H]1O` (stereo not given in full), for which, in the assay with Triticum aestivum [1], the Activity was determined as 2500. The Ka with Triticum aestivum [2] is 2.8 10^6/M. For `CC(=O)N[C@H]1[C@H](O[C@H]2[C@@H](O)[C@@H](CO)O[C@@H](O[C@@H]3[C@@H](O)[C@H](O)C(O)O[C@H]3CO)[C@@H]2O)O[C@H](CO)[C@@H](O)[C@@H]1O` (stereo not given in full), in the assay with Triticum aestivum [2], the Ka is 1.1 10^3/M.

`CC(=O)N[C@H]1[C@H](O[C@H]2[C@@H](O)[C@@H](CO)O[C@@H](O[C@@H]3[C@@H](O)[C@H](O)C(OCCCCCSCCC[Si](CCCSCCCCCOC4O[C@@H](CO)[C@H](O[C@@H]5O[C@H](CO)[C@H](O)[C@H](O[C@@H]6O[C@H](CO)[C@@H](O)[C@H](O)[C@H]6NC(C)=O)[C@H]5O)[C@@H](O)[C@@H]4O)(CCCSCCCCCOC4O[C@@H](CO)[C@H](O[C@@H]5O[C@H](CO)[C@H](O)[C@H](O[C@@H]6O[C@H](CO)[C@@H](O)[C@H](O)[C@H]6NC(C)=O)[C@H]5O)[C@@H](O)[C@@H]4O)CCC[Si](CCCSCCCCCOC4O[C@@H](CO)[C@H](O[C@@H]5O[C@H](CO)[C@H](O)[C@H](O[C@@H]6O[C@H](CO)[C@@H](O)[C@H](O)[C@H]6NC(C)=O)[C@H]5O)[C@@H](O)[C@@H]4O)(CCCSCCCCCOC4O[C@@H](CO)[C@H](O[C@@H]5O[C@H](CO)[C@H](O)[C@H](O[C@@H]6O[C@H](CO)[C@@H](O)[C@H](O)[C@H]6NC(C)=O)[C@H]5O)[C@@H](O)[C@@H]4O)CCC[Si](CCSCCCCCOC4O[C@@H](CO)[C@H](O[C@@H]5O[C@H](CO)[C@H](O)[C@H](O[C@@H]6O[C@H](CO)[C@@H](O)[C@H](O)[C@H]6NC(C)=O)[C@H]5O)[C@@H](O)[C@@H]4O)(CCSCCCCCOC4O[C@@H](CO)[C@H](O[C@@H]5O[C@H](CO)[C@H](O)[C@H](O[C@@H]6O[C@H](CO)[C@@H](O)[C@H](O)[C@H]6NC(C)=O)[C@H]5O)[C@@H](O)[C@@H]4O)CCSCCCCCOC4O[C@@H](CO)[C@H](O[C@@H]5O[C@H](CO)[C@H](O)[C@H](O[C@@H]6O[C@H](CO)[C@@H](O)[C@H](O)[C@H]6NC(C)=O)[C@H]5O)[C@@H](O)[C@@H]4O)O[C@H]3CO)[C@@H]2O)O[C@H](CO)[C@@H](O)[C@@H]1O` (stereo not given in full) had an Activity with Triticum aestivum [1] of 1200. Besides, in the assay with Triticum aestivum [2], the Ka was 1.3 10^6/M.
